Measurements from patent US20170037028A1 (BAYER PHARMA AKTIENGESELLSCHAFT, priority 2013, published 2017).

Biological target: T1, GLUT1 (Homo sapiens, UniProt P11166)
T1 sequence (P11166 1-492): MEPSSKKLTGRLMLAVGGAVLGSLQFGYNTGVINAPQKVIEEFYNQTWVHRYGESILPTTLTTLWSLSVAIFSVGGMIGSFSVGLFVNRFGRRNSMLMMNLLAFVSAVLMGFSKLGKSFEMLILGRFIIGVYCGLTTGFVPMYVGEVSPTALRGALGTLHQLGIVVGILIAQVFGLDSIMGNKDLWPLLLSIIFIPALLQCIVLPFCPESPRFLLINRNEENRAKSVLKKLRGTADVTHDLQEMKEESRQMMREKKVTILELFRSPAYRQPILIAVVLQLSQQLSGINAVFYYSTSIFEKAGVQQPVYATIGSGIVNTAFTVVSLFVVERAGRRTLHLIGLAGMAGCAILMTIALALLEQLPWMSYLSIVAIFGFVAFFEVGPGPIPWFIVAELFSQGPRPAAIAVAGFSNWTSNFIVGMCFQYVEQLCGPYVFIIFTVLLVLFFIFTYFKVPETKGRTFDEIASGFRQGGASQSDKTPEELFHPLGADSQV
Test: Indirect measurement of GLUT1 activity by quantification of intracellular ATP levels (glucose induced ATP increase)
Format: cell-based
Design: endogenous in cells; host or cells: DLD1 or CHO-K1
Conditions: read-out: IC50 regarding glucose induced ATP increase (GLUT1 inhibition)
Procedure, shortened: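 DLD1 or CHO-K1 cells were starved overnight in glucose-free medium with 1% FCS, then combined with an oxidative phosphorylation inhibitor. GLUT1 activity was read as glucose-induced ATP increase, GLUT2 as fructose-induced. Intracellular ATP was quantified by CellTiter-Glo luminescence.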

In the case of Cc1c(NC(=O)c2cc(C(F)(F)F)nc3ccc(Br)cc23)c(C(F)(F)F)nn1Cc1ccncc1 [Example 1365], the IC50 is reported as 167 nM.
For COc1cc(C(=O)Nc2c(C(F)(F)F)nn(Cc3ccncc3)c2C)c2ccccc2n1 [Example 1366], the IC50 was 38.1 nM.
For Cc1c(NC(=O)c2cc(C(N)=O)nc3ccccc23)c(C(F)(F)F)nn1Cc1ccncc1 [Example 1367], the IC50 was 275 nM.
Molecule Cc1c(NC(=O)c2cc(C(N)=O)nc3cc(F)c(Cl)cc23)c(C(F)(F)F)nn1Cc1ccncc1 [Example 1368] has an IC50 of 29.3 nM.
Work on Cc1nn(Cc2ccc(C(C)(C)C)cc2)c(C)c1NC(=O)c1cc(C(N)=O)nc2ccccc12 [Example 1369] yielded an IC50 of 143 nM.
Molecule Cc1c(NC(=O)c2cc(C(N)=O)nc3ccccc23)c(C(F)(F)F)nn1Cc1ccc(C(C)(C)C)cc1 [Example 1370] has an IC50 of 1090 nM.
Cc1c(NC(=O)c2cc(C(N)=O)nc3ccccc23)c(C(F)(F)F)nn1CCc1ccc(F)cc1 [Example 1371] gave an IC50 of 144 nM.
COc1cc(C(=O)Nc2c(C(F)(F)F)nn(CCc3ccc(F)cc3)c2C)c2ccccc2n1 [Example 1372] gave an IC50 of 950 nM.
In the case of Cc1c(NC(=O)c2cc(C(F)(F)F)nc3ccc(Br)cc23)c(C(F)(F)F)nn1CCc1ccc(F)cc1 [Example 1373], the IC50 is reported as 1990 nM.
COc1cc(C(=O)Nc2c(C)nn(C(C)c3ccc(F)cc3)c2C)c2ccccc2n1 (centres unmarked) [Example 1375] showed an IC50 of 15.1 nM.
COc1cc(C(=O)Nc2c(C(F)(F)F)nn(Cc3ccc(C#N)cc3)c2C)c2cc(F)ccc2n1 [Example 1376] was tested, and the IC50 was 18.9 nM.
Molecule Cc1ccc2nc(C(N)=O)cc(C(=O)Nc3c(C)nn(Cc4ccc(F)cc4)c3C)c2c1 [Example 1377] has an IC50 of 1.7 nM.
For Cc1c(NC(=O)c2cc(C(N)=O)nc3ccc(S(N)(=O)=O)cc23)c(C(F)(F)F)nn1Cc1ccc(C#N)cc1 [Example 1382], the IC50 was 5370 nM.
Cc1nn(Cc2ccc(C(C)(C)C)cc2)c(C)c1NC(=O)c1cc(C(N)=O)nc2cc(F)ccc12 [Example 1383] showed an IC50 of 140 nM.
For CCc1nn(Cc2ccc(F)cc2)c(CC)c1NC(=O)c1cc(C(N)=O)nc2c(F)cccc12 [Example 1384], the IC50 was 425 nM.
CCc1nn(Cc2ccc(F)cc2)c(CC)c1NC(=O)c1cc(C(N)=O)nc2cc(F)ccc12 [Example 1385] showed an IC50 of 60.7 nM.
With CCc1nn(Cc2ccc(F)cc2)c(CC)c1NC(=O)c1cc(C(N)=O)nc2cc(F)c(Cl)cc12 [Example 1386] the IC50 was 13.6 nM.
Molecule CCc1nn(Cc2ccc(F)cc2)c(CC)c1NC(=O)c1cc(C(N)=O)nc2ccccc12 [Example 1387] has an IC50 of 36.7 nM.
With CCc1nn(Cc2ccc(F)cc2)c(CC)c1NC(=O)c1cc(C(F)(F)F)nc2ccc(Br)cc12 [Example 1388] the IC50 was 1530 nM.
In the case of Cc1c(NC(=O)c2cc(C(N)=O)nc3ccc(S(C)(=O)=O)cc23)c(C(F)(F)F)nn1Cc1ccc(C#N)cc1 [Example 1389], the IC50 is reported as 1930 nM.
COC(=O)c1cc(C(=O)Nc2c(C)nn(Cc3ccc(C#N)cc3)c2C)c2ccc(OC)cc2n1 [Example 1390] gave an IC50 of 229 nM.
CCc1nn(Cc2ccc(F)cc2)c(CC)c1NC(=O)c1cc(C(N)=O)nc2cc(Cl)ccc12 [Example 1391] was tested, and the IC50 was 362 nM.
Cc1c(NC(=O)c2cc(C(N)=O)nc3cc(F)ccc23)c(C(F)(F)F)nn1Cc1ncccc1C#N [Example 1392] showed an IC50 of 15.5 nM.
With Cc1c(NC(=O)c2cc(C(N)=O)nc3ccccc23)c(C(F)(F)F)nn1Cc1ncccc1C#N [Example 1393] the IC50 was 15 nM.
Cc1c(NC(=O)c2cc(C(N)=O)nc3ccc(N4CCN(C)CC4)cc23)c(C(F)(F)F)nn1Cc1ccc(C#N)cc1 [Example 1394] gave an IC50 of 127 nM.
Work on Cc1c(NC(=O)c2cc(C(N)=O)nc3cccc(F)c23)c(C(F)(F)F)nn1Cc1ncccc1C#N [Example 1395] yielded an IC50 of 12.6 nM.
Cc1c(NC(=O)c2cc(C(N)=O)nc3cc(F)ccc23)c(C(F)(F)F)nn1Cc1ccc(F)c(F)c1 [Example 1396] was tested, and the IC50 was 4.6 nM.
Work on Cc1nn(Cc2ccc(C#N)cc2)c(C)c1NC(=O)c1cc(C(=O)NCCO)nc2cc(F)ccc12 [Example 1399] yielded an IC50 of 132 nM.
Cc1c(NC(=O)c2cc(C(=O)NCCN(C)C)nc3cc(F)ccc23)c(C(F)(F)F)nn1Cc1ccc(C#N)cc1 [Example 1400] was tested, and the IC50 was 2610 nM.
Work on Cc1nn(Cc2ccc(C#N)cc2)c(C)c1NC(=O)c1cc(C(=O)NCCN(C)C)nc2cc(F)ccc12 [Example 1401] yielded an IC50 of 1240 nM.
Molecule Cc1nn(Cc2ccc(C#N)cc2)c(C)c1NC(=O)c1cc(C(=O)NCCN2CCOCC2)nc2cc(F)ccc12 [Example 1402] has an IC50 of 238 nM.
Cc1c(NC(=O)c2cc(C(=O)NCCO)nc3cc(F)ccc23)c(C(F)(F)F)nn1Cc1ccc(C#N)cc1 [Example 1403] was tested, and the IC50 was 245 nM.
For Cc1nn(Cc2ccc(C(C)C)cc2)c(C)c1NC(=O)c1cc(C(N)=O)nc2cc(F)ccc12 [Example 1404], the IC50 was 3.8 nM.
Cc1nn(Cc2ccc(C(C)C)cc2)c(C)c1NC(=O)c1cc(C(N)=O)nc2ccccc12 [Example 1405] was tested, and the IC50 was 8.2 nM.
Work on Cc1c(NC(=O)c2cc(C(N)=O)nc3cc(F)ccc23)c(C(F)(F)F)nn1Cc1ccc(C(C)C)cc1 [Example 1406] yielded an IC50 of 119 nM.
For Cc1c(NC(=O)c2cc(C(N)=O)nc3ccccc23)c(C(F)(F)F)nn1Cc1ccc(C(C)C)cc1 [Example 1407], the IC50 was 28.7 nM.
For Cc1nn(Cc2ncccc2C#N)c(C)c1NC(=O)c1cc(C(N)=O)nc2ccc(Br)cc12 [Example 1408], the IC50 was 4.9 nM.
Molecule Cc1nn(Cc2ncccc2C#N)c(C)c1NC(=O)c1cc(C(N)=O)nc2cc(F)ccc12 [Example 1409] has an IC50 of 11.1 nM.
Work on Cc1nn(Cc2ncccc2C#N)c(C)c1NC(=O)c1cc(C(N)=O)nc2cccc(F)c12 [Example 1410] yielded an IC50 of 30.6 nM.
Cc1nn(Cc2ncccc2C#N)c(C)c1NC(=O)c1cc(C(N)=O)nc2cc(F)c(Cl)cc12 [Example 1411] gave an IC50 of 3.2 nM.
CCc1ccc(Cn2nc(C(F)(F)F)c(NC(=O)c3cc(C(N)=O)nc4ccccc34)c2C)cc1 [Example 1413] was tested, and the IC50 was 1.1 nM.
With CCc1ccc(Cn2nc(C(F)(F)F)c(NC(=O)c3cc(C(N)=O)nc4ccc(Br)cc34)c2C)cc1 [Example 1414] the IC50 was 0.8 nM.
CCc1ccc(Cn2nc(C(F)(F)F)c(NC(=O)c3cc(C(N)=O)nc4cc(F)c(Cl)cc34)c2C)cc1 [Example 1415] showed an IC50 of 3.3 nM.
For Cc1nn(Cc2ccncn2)c(C)c1NC(=O)c1cc(C(F)(F)F)nc2ccc(Br)cc12 [Example 1416], the IC50 was 97 nM.
With Cc1nn(Cc2ccncn2)c(C)c1NC(=O)c1cc(C(N)=O)nc2ccccc12 [Example 1417] the IC50 was 164 nM.
In the case of COc1cc(C(=O)Nc2c(C#N)nn(Cc3ccc(F)cc3)c2C)c2ccccc2n1 [Example 1418], the IC50 is reported as 34.1 nM.
Work on Cc1nn(Cc2ccc(C(=O)N3CCC3)cc2)c(C)c1NC(=O)c1cc(C(N)=O)nc2cc(F)ccc12 [Example 1419] yielded an IC50 of 24.6 nM.
Work on Cc1nn(Cc2ccc(C(=O)NCCO)cc2)c(C)c1NC(=O)c1cc(C(N)=O)nc2cc(F)ccc12 [Example 1420] yielded an IC50 of 354 nM.
With COCCNC(=O)c1ccc(Cn2nc(C)c(NC(=O)c3cc(C(N)=O)nc4cc(F)ccc34)c2C)cc1 [Example 1421] the IC50 was 39 nM.
Cc1nn(Cc2ccc(C(=O)NCCN(C)C)cc2)c(C)c1NC(=O)c1cc(C(N)=O)nc2cc(F)ccc12 [Example 1422] showed an IC50 of 7110 nM.
Molecule Cc1nn(Cc2ccc(C(=O)O)cc2)c(C)c1NC(=O)c1cc(C(N)=O)nc2cc(F)ccc12 [Example 1423] has an IC50 of 29.6 nM.
Cc1nn(Cc2ccc(C(N)=O)cc2)c(C)c1NC(=O)c1cc(C(N)=O)nc2cc(F)ccc12 [Example 1424] showed an IC50 of 69.1 nM.
CNC(=O)c1ccc(Cn2nc(C)c(NC(=O)c3cc(C(N)=O)nc4cc(F)ccc34)c2C)cc1 [Example 1425] was tested, and the IC50 was 56.3 nM.
Work on Cc1nn(Cc2ccc(C(=O)N(C)C)cc2)c(C)c1NC(=O)c1cc(C(N)=O)nc2cc(F)ccc12 [Example 1426] yielded an IC50 of 80 nM.
Cc1nn(Cc2ccc(C#N)cc2)c(C)c1NC(=O)c1cc(C(=O)N2CCC2)nc2cc(F)ccc12 [Example 1428] gave an IC50 of 12.3 nM.
In the case of Cc1c(NC(=O)c2cc(C(N)=O)nc3cc(F)ccc23)c(C(F)(F)F)nn1Cc1ccc(S(C)(=O)=O)cc1 [Example 1429], the IC50 is reported as 29.4 nM.
Cc1c(NC(=O)c2cc(C(F)(F)F)nc3ccc(Br)cc23)c(C(F)(F)F)nn1Cc1ccc(S(C)(=O)=O)cc1 [Example 1430] was tested, and the IC50 was 66.3 nM.
In the case of COc1cc(C(=O)Nc2c(C(F)(F)F)nn(Cc3ccc(S(C)(=O)=O)cc3)c2C)c2ccccc2n1 [Example 1431], the IC50 is reported as 138 nM.
Cc1c(NC(=O)c2cc(C(N)=O)nc3ccccc23)c(C(F)(F)F)nn1Cc1ccc(S(C)(=O)=O)cc1 [Example 1432] was tested, and the IC50 was 27.4 nM.
In the case of Cc1c(NC(=O)c2cc(C(N)=O)nc3ccc(NCCN(C)C)cc23)c(C(F)(F)F)nn1Cc1ccc(C#N)cc1 [Example 1434], the IC50 is reported as 51.3 nM.
Work on Cc1c(NC(=O)c2cc(C(N)=O)nc3cc(F)ccc23)c(C(F)(F)F)nn1Cc1ccc(F)cc1F [Example 1435] yielded an IC50 of 2.8 nM.
COc1cc(C(=O)Nc2c(C(F)(F)F)nn(Cc3ccc(F)cc3)c2C)c2ccccc2n1 [Example 1436] showed an IC50 of 63.2 nM.
Cc1c(NC(=O)c2cc(C(N)=O)nc3cccc(F)c23)c(C(F)(F)F)nn1Cc1ccc(S(C)(=O)=O)cc1 [Example 1437] showed an IC50 of 13.9 nM.
Cc1c(NC(=O)c2cc(C(N)=O)nc3cc(F)c(Cl)cc23)c(C(F)(F)F)nn1Cc1ccc(S(C)(=O)=O)cc1 [Example 1438] was tested, and the IC50 was 3.1 nM.
Cc1c(NC(=O)c2cc(C(N)=O)nc3ccc(Br)cc23)c(C(F)(F)F)nn1Cc1ccc(S(C)(=O)=O)cc1 [Example 1439] showed an IC50 of 1.9 nM.
